Test results reported in PubChem BioAssay (NCI).
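A five-concentration, 48-hour dose response in 96-well plates underlies each endpoint, interpolated linearly between surrounding concentrations. The concentration for 50% growth inhibition is given as GI50. TGI marks complete inhibition of growth.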

Tests used:
Assay in all cases: inhibition of tumour cell growth, NCI panel, 48 h
786-0 renal = tested on: 786-0 renal
A498 renal = tested on: A498 renal
A549 NSCLC = tested on: A549 NSCLC
ACHN renal = tested on: ACHN renal
CAKI-1 renal = tested on: CAKI-1 renal
CCRF-CEM leukemia = tested on: CCRF-CEM leukemia
COLO 205 colon = tested on: COLO 205 colon
DU-145 prostate = tested on: DU-145 prostate
EKVX NSCLC = tested on: EKVX NSCLC
HCC-2998 colon = tested on: HCC-2998 colon
HCT-15 colon = tested on: HCT-15 colon
HL-60(TB) leukemia = tested on: HL-60(TB) leukemia
HOP-92 NSCLC = tested on: HOP-92 NSCLC
HS 578T breast = tested on: HS 578T breast
HT29 colon = tested on: HT29 colon
IGROV1 ovarian = tested on: IGROV1 ovarian
K-562 leukemia = tested on: K-562 leukemia
KM12 colon = tested on: KM12 colon
M14 melanoma = tested on: M14 melanoma
MALME-3M melanoma = tested on: MALME-3M melanoma
MCF7 breast = tested on: MCF7 breast
MDA-MB-231 breast = tested on: MDA-MB-231 breast
MDA-MB-435 = tested on: MDA-MB-435
NCI-H226 lung = tested on: NCI-H226 lung
NCI-H23 lung = tested on: NCI-H23 lung
NCI-H460 lung = tested on: NCI-H460 lung
NCI-H522 lung = tested on: NCI-H522 lung
NCI/ADR-RES ovarian = tested on: NCI/ADR-RES ovarian
OVCAR-3 ovarian = tested on: OVCAR-3 ovarian
OVCAR-4 ovarian = tested on: OVCAR-4 ovarian
OVCAR-5 ovarian = tested on: OVCAR-5 ovarian
PC-3 prostate = tested on: PC-3 prostate
SF-295 CNS = tested on: SF-295 CNS
SF-539 CNS = tested on: SF-539 CNS
SK-MEL-2 melanoma = tested on: SK-MEL-2 melanoma
SK-MEL-28 melanoma = tested on: SK-MEL-28 melanoma
SK-MEL-5 melanoma = tested on: SK-MEL-5 melanoma
SK-OV-3 ovarian = tested on: SK-OV-3 ovarian
SN12C renal = tested on: SN12C renal
SNB-75 CNS = tested on: SNB-75 CNS
SW-620 colon = tested on: SW-620 colon
T-47D breast = tested on: T-47D breast
TK-10 renal = tested on: TK-10 renal
U251 CNS = tested on: U251 CNS
UACC-257 melanoma = tested on: UACC-257 melanoma
UACC-62 melanoma = tested on: UACC-62 melanoma
UO-31 renal = tested on: UO-31 renal

Structure (SMILES): c1cc(C2CCCCC2)ccc1OCCCCCCN1CCNCC1
- GI50 (786-0 renal): 2.31 µM
- TGI (786-0 renal): 5.31 µM
- GI50 (A498 renal): 5.06 µM
- TGI (A498 renal): 26.5 µM
- GI50 (A549 NSCLC): 1.92 µM
- TGI (A549 NSCLC): 3.65 µM
- GI50 (ACHN renal): 1.78 µM
- TGI (ACHN renal): 3.33 µM
- GI50 (CAKI-1 renal): 2.01 µM
- TGI (CAKI-1 renal): 4.54 µM
- GI50 (CCRF-CEM leukemia): 1.51 µM
- TGI (CCRF-CEM leukemia): 3.39 µM
- GI50 (COLO 205 colon): 1.96 µM
- TGI (COLO 205 colon): 3.55 µM
- GI50 (DU-145 prostate): 1.88 µM
- TGI (DU-145 prostate): 3.42 µM
- GI50 (EKVX NSCLC): 5.76 µM
- TGI (EKVX NSCLC): 47.3 µM
- GI50 (HCC-2998 colon): 2.14 µM
- TGI (HCC-2998 colon): 3.76 µM
- GI50 (HCT-15 colon): 1.64 µM
- TGI (HCT-15 colon): 3.25 µM
- GI50 (HL-60(TB) leukemia): 1.54 µM
- TGI (HL-60(TB) leukemia): 3.32 µM
- GI50 (HOP-92 NSCLC): 1.55 µM
- TGI (HOP-92 NSCLC): 5.23 µM
- GI50 (HS 578T breast): 1.96 µM
- TGI (HS 578T breast): 4.48 µM
- GI50 (HT29 colon): 1.45 µM
- TGI (HT29 colon): 2.98 µM
- GI50 (IGROV1 ovarian): 2.04 µM
- TGI (IGROV1 ovarian): 3.89 µM
- GI50 (K-562 leukemia): 1.46 µM
- TGI (K-562 leukemia): 3.11 µM
- GI50 (KM12 colon): 1.98 µM
- TGI (KM12 colon): 3.55 µM
- GI50 (M14 melanoma): 1.98 µM
- TGI (M14 melanoma): 4.33 µM
- GI50 (MALME-3M melanoma): 1.99 µM
- TGI (MALME-3M melanoma): 3.86 µM
- GI50 (MCF7 breast): 1.63 µM
- TGI (MCF7 breast): 3.32 µM
- GI50 (MDA-MB-231 breast): 1.61 µM
- TGI (MDA-MB-231 breast): 3.29 µM
- GI50 (MDA-MB-435): 1.64 µM
- TGI (MDA-MB-435): 3.12 µM
- GI50 (NCI-H226 lung): 4.67 µM
- TGI (NCI-H226 lung): 26.4 µM
- GI50 (NCI-H23 lung): 1.96 µM
- TGI (NCI-H23 lung): 3.82 µM
- GI50 (NCI-H460 lung): 1.84 µM
- TGI (NCI-H460 lung): 3.43 µM
- GI50 (NCI-H522 lung): 1.7 µM
- TGI (NCI-H522 lung): 3.38 µM
- GI50 (NCI/ADR-RES ovarian): 2.36 µM
- TGI (NCI/ADR-RES ovarian): 5.14 µM
- GI50 (OVCAR-3 ovarian): 1.82 µM
- TGI (OVCAR-3 ovarian): 3.57 µM
- GI50 (OVCAR-4 ovarian): 1.95 µM
- TGI (OVCAR-4 ovarian): 4.52 µM
- GI50 (OVCAR-5 ovarian): 1.75 µM
- TGI (OVCAR-5 ovarian): 3.5 µM
- GI50 (PC-3 prostate): 2.15 µM
- TGI (PC-3 prostate): 5.97 µM
- GI50 (SF-295 CNS): 1.92 µM
- TGI (SF-295 CNS): 3.77 µM
- GI50 (SF-539 CNS): 1.78 µM
- TGI (SF-539 CNS): 3.25 µM
- GI50 (SK-MEL-2 melanoma): 1.82 µM
- TGI (SK-MEL-2 melanoma): 3.71 µM
- GI50 (SK-MEL-28 melanoma): 2.96 µM
- TGI (SK-MEL-28 melanoma): 8.76 µM
- GI50 (SK-MEL-5 melanoma): 1.78 µM
- TGI (SK-MEL-5 melanoma): 3.26 µM
- GI50 (SK-OV-3 ovarian): 4.16 µM
- TGI (SK-OV-3 ovarian): 15.2 µM
- GI50 (SN12C renal): 1.79 µM
- TGI (SN12C renal): 3.54 µM
- GI50 (SNB-75 CNS): 1.83 µM
- TGI (SNB-75 CNS): 4.5 µM
- GI50 (SW-620 colon): 1.78 µM
- TGI (SW-620 colon): 3.4 µM
- GI50 (T-47D breast): 2.14 µM
- TGI (T-47D breast): 4.79 µM
- GI50 (TK-10 renal): 1.78 µM
- TGI (TK-10 renal): 3.24 µM
- GI50 (U251 CNS): 1.63 µM
- TGI (U251 CNS): 3.17 µM
- GI50 (UACC-257 melanoma): 1.89 µM
- TGI (UACC-257 melanoma): 3.68 µM
- GI50 (UACC-62 melanoma): 1.86 µM
- TGI (UACC-62 melanoma): 3.81 µM
- GI50 (UO-31 renal): 1.62 µM
- TGI (UO-31 renal): 3.38 µM
